Test results from patent publication US9220706B2, “Inhibition of leukemic stem cells by PP2A activating agents” (Ohio State Innovation Foundation, priority 2012, dated 2015).

Experiments:
CD34+/CD38− CML cells = assay: CFC/replating assay, CML cells; type: cell-based, human
Procedure: Long term culture-initiating cell (LTC-IC) and Colony-forming cell (CFC)/replating assays. 2×10^6 mononuclear CML cells were cultured with a 1:1 mixture of irradiated (80 Gy) IL-3/G-CSF-producing M2-10B4 and IL-3/KL-producing SI/SI murine fibroblasts in MyeloCult H5100 (StemCell Technologies) supplemented with hydrocortisone. Drugs were present during the first week of culture. Medium was replaced after 7 days, followed by weekly half-medium changes. After 6 weeks, adherent and floating cells were harvested and 5×10^4 cells plated into MethoCult H4435. LTC-IC-derived colonies were scored after 14 days. For CFC/replating, individual 14-day colonies from 10^3-10^5 CD34+/CD38− CML or 0.2×10^3-10^3 leukemic LSK cells plated in 0.9% H4435 or M3234 MethoCult, respectively, containing KL, G-CSF, GM-CSF, IL-3, IL-6, and Epo were replated and scored 2 weeks later.

[1] = test system: Lin^− SCLtTA-BCR-ABL1 cells; assay: CFSE-mediated tracking of quiescent cells, mouse leukemic; type: cell-based; details: 2.5 μM FTY720
Procedure: (§1) CFSE-mediated tracking of cell division. Carboxyfluorescein diacetate succinimidyl diester (CFSE)-stained cells (CellTrace CFSE Proliferation Kit: Invitrogen) were cultured in the presence of the indicated drugs (dosed at time zero and at day three), and the cells were harvested after 3 or 6 days in culture, and stained with anti-CD34 PE, Annexin-V V450, and the viability stain 7-AAD (BD Bioscience) to determine the number of viable quiescent cells (CFSEmax/CD34^+/7-AAD− cells) and the percentage of quiescent and apoptosis-committed cells (CFSEmax/CD34+/Annexin V+/7-AAD±). Cells were sorted into dividing and quiescent populations for Western blot analysis. For assessment of mouse quiescent leukemic HSCs, Lin- cells from 8 week-induced SCLtTA/BCR-ABL1 mice were CFSE-stained and used as described above. Quiescent cells (CFSE^max/CD34^+) were reported as a fraction of the initial number of CD34^+ cells.

[2] = test system: CFSE^max/CD34^+ NBM cells; assay: CFSE-mediated tracking of quiescent cells, normal bone marrow; type: cell-based, human
Procedure: as §1

β-catenin = β-catenin immunofluorescence; type: cell-based, human
Text: (§2) Immunofluorescence and proximity ligation assay. CD34^+/CD38^− cells from CML patient samples or LSK cells derived from induced leukemic mice were sorted, treated in liquid culture with the indicated drugs and cytospun onto glass slides. Slides were fixed in 3.7% formaldehyde, penneabilized with 0.05% Triton X-100, and stained with an Anti-®-catenin primary antibody (Cell signaling), a secondary goat F(ab′) anti-rabbit conjugated to Alexa Fluor 647, and the nuclear stain DAPI (Invitrogen); slides were mounted with Slowfade antifade reagent (Invitrogen). Microphotographs were obtained with a Zeiss LSM 510 confocal laser-scanning microscope with C-Apochromat 63/1.2 W objective. A minimum of three fields for each slide were acquired. For the Proximity Ligation Assay (PLA) CD34+/CD38− CML cells were treated, fixed, and permeabilized as described above. The slides were then simultaneously stained with a mix of mouse anti-PP2A (Millipore) and rabbit anti-SET (Globozyme) antibodies. The PLA procedure (Duolink; Olink Bioscience) was performed according to manufacturer instructions. An average of 20 z-stack ([…]) were captured with a Zeiss LSM 510 confocal laser-scanning microscope with C-Apochromat 63/1.2 W objective; at least three fields/slide were acquired. Three-dimensional projections were generated and positive signals/cell were calculated by ImageJ software (NIH).

[3] = test system: β-catenin-driven (LEF/TCF) transcriptional activity; assay: LEF/TCF reporter assay; type: cell-based, human; details: CD34^+/CD38^− CML and 32D-BCR/ABL cells
Procedure: LEF/TCF reporter assay. CD34+/CD38− CML cells were transduced with pBAR or pfuBAR (negative control) ®-catenin lentiviral reporter constructs (54), puromycin-selected and treated with the indicated drugs. Luciferase was measured using the Bright-Glo Luciferase system (Promega).

[4] = test system: GFP+ leukemic LSK and LT-HSC from SCLtTA/BCR-ABL1/GFP mice; assay: BM serial transplantation, transgenic BCR-ABL1 mice; type: in vivo, mouse
Procedure: BM Serial Transplantation Assays and In Vivo Effect of FTY720 on LT-HSCs from Transgenic BCR-ABL1 Mice. 2×10^6 GFP+ BM or 3×10^3 GFP+ BM-derived LSK (Lin^−/Sca-1^+/Kit^+) cells from 4-week induced leukemic SCLtTA/BCR-ABL1/GFP mice were transplanted into lethally-irradiated FVB/N mice. After the onset of neutrophilia (4 weeks post-transplant), mice were FTY720- (10 mg/kg/day, i.p.) or vehicle-treated for 4 weeks. The number of total GFP+ cells and GFP+ long-term (LT)-HSCs (Lin^−/Sca-1^+/Kit^+/FLt3^−/CD150^+/CD48^−) was measured with a LSRII flow cytometer. BM cells (2×10^6, 1×10^6 and 0.5×10^6) from treated and untreated animals (8 mice/group) mixed with 2×10^5 FVB/N BM cells were transplanted into lethally-irradiated secondary recipients. Engraftment (GFP^+ in PB>0.1%) was monitored every 4 weeks, and LT-HSC frequency was determined 16 weeks after secondary transplant using Poisson statistics. All animal studies were IACUC approved.

BCR-ABL1^+ cells = assay: Intracellular phosphorylation of FTY720; type: cell-based
SET-PP2A interaction = target: T1, SET-PP2A interaction (Homo sapiens, UniProt Q01105); assay: Proximity ligation assay, SET-PP2A association; type: cell-based; details: CD34^+/CD38^− CML cells, 24 h
T1 construct: untreated and FTY720-treated (24 h) CD34^+/CD38^− CML cells; endogenous in cells; host or cells: CD34+/CD38- CML patient cells
T1 sequence (Q01105 1-277 isoform Q01105-2): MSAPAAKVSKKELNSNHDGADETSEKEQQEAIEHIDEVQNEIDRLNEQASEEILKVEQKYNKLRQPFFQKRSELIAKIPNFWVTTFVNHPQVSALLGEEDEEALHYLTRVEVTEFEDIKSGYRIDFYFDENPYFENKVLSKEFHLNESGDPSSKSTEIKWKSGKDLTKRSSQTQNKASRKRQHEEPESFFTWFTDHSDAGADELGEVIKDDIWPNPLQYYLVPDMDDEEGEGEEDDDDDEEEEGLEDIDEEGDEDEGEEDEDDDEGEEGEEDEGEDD
Text: as §2

[5] = FTY720 10 mg/kg/day i.p., 4-week treatment

CCCCCCCCc1ccc(CCC(N)(CO)CO)cc1 [FTY720]
reduction in replating efficiency (CD34+/CD38− CML cells): 70-90%
decrease in CFSE^max HSCs [1]: 70-90%
effect on frequency/number of normal quiescent CFSE^max cells [2]: not influenced
β-catenin degradation (β-catenin; CD34^+/CD38^− CML, leukemic LSK, and 32D-BCR/ABL cells): induced β-catenin degradation
β-catenin expression (β-catenin; Ph^+ CD34^+/CD38^− cells): markedly decreased
β-catenin transcriptional activity (LEF/TCF luciferase) [3]: markedly impaired
secondary recipients with leukemic engraftment ([4]; BM from treated mice, Table I Exp 1): 25%
Engraftment-positive at 16 weeks (>0.1% GFP+) ([4]; Experiment #1, cell dose in 2nd recipients 2,000,000): 2/8
LT-HSC frequency ([4]; Experiment #2, Poisson statistics, 16 weeks after secondary transplant): 0.45 × 10^−6
Engraftment-positive at 16 weeks (>0.1% GFP+) ([4]; Experiment #2, cell dose in 2nd recipients 500,000): 0/8
Engraftment-positive at 16 weeks (>0.1% GFP+) ([4]; Experiment #2, cell dose in 2nd recipients 1,000,000): 3/7
Engraftment-positive at 16 weeks (>0.1% GFP+) ([4]; Experiment #2, cell dose in 2nd recipients 2,000,000): 5/7
reduction of GFP^+ (leukemic) LSK [4, 5]: ≥ 50%
reduction of splenic and/or BM GFP^+ LT-HSC [4, 5]: ≥ 70%
reduction of frequency of leukemic LT-HSCs ([4]; limiting dilution analysis, Table I Exp. 2): ~80%
intracellular FTY720 remaining unphosphorylated (BCR-ABL1^+ cells): more than 90%
SET-PP2A interaction (SET-PP2A interaction): disrupts the SET-PP2A interaction
